Assays:
BRAF = target: T1, BRAF (Homo sapiens, UniProt P15056); test: In vitro kinase assay (Z′-LYTE); format: biochemical; details: compound 100 nM; ATP 100 μM; read-out: % of inhibition of the kinase compared to the control
T1 construct: purchased Invitrogen
Procedure: (§1) The inhibitory activity of the compounds on several kinases including BRAF, EGFR (ErbB1), EGFR (ErbB1) T790M L858R, FGFR2, KDR (VEGFR2), PDGFRA (PDGFR alpha), SRC and other was evaluated by Invitrogen using the Z′-LYTE® technology. Briefly, the Z′-LYTE® biochemical assay employs a fluorescence-based, coupled-enzyme format and is based on the differential sensitivity of phosphorylated and non-phosphorylated peptides to proteolytic cleavage. The peptide substrate is labeled with two fluorophores—one at each end—that make up a FRET pair. A ratiometric method, which calculates the ratio (the Emission Ratio) of donor emission to acceptor emission after excitation of the donor fluorophore at 400 nm, is used to quantitate reaction progress.
(§2) The compounds are screened in 1% DMSO (final) in the well. For 10 point titrations, 3-fold serial dilutions are conducted from the starting concentration. All Peptide/Kinase Mixtures are diluted to a 2× working concentration in the appropriate Kinase Buffer. All ATP Solutions are diluted to a 4× working concentration in Kinase Buffer (50 mM HEPES pH 7.5, 0.01% BRIJ-35, 10 mM MgCl2, 1 mM EGTA). ATP Km apparent is previously determined using a Z′-LYTE® assay.
(§3) Each compound was incubated at a concentration of 100 nM (excepted to test the activity against ABL and ABL T315I for which the compounds were incubated at a concentration of 10 μM) and the tables B1 to B12 summarize the results obtained showing the inhibitory power of a compound. The inhibitory activity of OR0512 was also investigated using the same assays and the kinases for which activity was inhibited at more than 50% at the concentration of 100 nM of OR0512 are listed in the table B13.

EGFR (ErbB1) = target: T2, EGFR (ErbB1) (Homo sapiens, UniProt P00533); test: In vitro kinase assay (Z′-LYTE); format: biochemical; details: read-out: % of inhibition of the kinase compared to the control
T2 construct: purchased Invitrogen
Procedure: as §1, §2, §3

FGFR2 = target: T3, FGFR2 (Homo sapiens, UniProt P21802); test: In vitro kinase assay (Z′-LYTE); format: biochemical; details: read-out: % of inhibition of the kinase compared to the control
T3 construct: purchased Invitrogen
Procedure: as §1, §2, §3

KDR (VEGFR2) = target: T4, KDR (VEGFR2) (Homo sapiens, UniProt P35968); test: In vitro kinase assay (Z′-LYTE); format: biochemical; details: read-out: % of inhibition of the kinase compared to the control
T4 construct: purchased Invitrogen
Procedure: as §1, §2, §3

PDGFRA (PDGFR alpha) = target: T5, PDGFRA (PDGFR alpha) (Homo sapiens, UniProt P16234); test: In vitro kinase assay (Z′-LYTE); format: biochemical; details: read-out: % of inhibition of the kinase compared to the control
T5 construct: purchased Invitrogen
Procedure: as §1, §2, §3

HUVEC = test: In vitro cell proliferation assay (MTT); format: cell-based; details: Homo sapiens, 72 h
Procedure: (§4) Cancer cell lines (5×10^3 cells per well) or HUVEC (1×10^4 cells per well) or HRMEC (1×10^4 cells per well) were distributed in 96-well plates and incubating in duplicate with escalating concentrations (10 nM to 3 μM) of compounds for 72 hr. Cell proliferation was measured using MTT (3 [4,5-dimethylthiazol-2-yl]-2,5-diphenyltetrazolium bromide).

HepG2 = test: In vitro cell proliferation assay (MTT); format: cell-based; details: Homo sapiens, HepG2, 72 h
Procedure: as §4

HuH7 = test: In vitro cell proliferation assay (MTT); format: cell-based; details: Homo sapiens, Huh-7, 72 h
Procedure: as §4

SRC = target: T6, SRC (Homo sapiens, UniProt P12931); test: In vitro kinase assay (Z′-LYTE); format: biochemical; details: read-out: % of inhibition of the kinase compared to the control
T6 construct: purchased Invitrogen
Procedure: as §1, §2, §3

A549 = test: In vitro cell proliferation assay (MTT); format: cell-based; details: Homo sapiens, A549, 72 h
Procedure: as §4

HeLa = test: In vitro cell proliferation assay (MTT); format: cell-based; details: Homo sapiens, 72 h
Procedure: as §4

MDA-MB-231 = test: In vitro cell proliferation assay (MTT); format: cell-based; details: Homo sapiens, MDA-MB-231, 72 h
Procedure: as §4

ABL = target: T7, ABL (Homo sapiens, UniProt P00519); test: In vitro kinase assay (Z′-LYTE); format: biochemical; details: read-out: % of inhibition of the kinase compared to the control
T7 construct: purchased Invitrogen
Procedure: as §1, §2, §3

ABL T315I = target: T8, ABL T315I (Homo sapiens, UniProt P00519, T315I); test: In vitro kinase assay (Z′-LYTE); format: biochemical; details: read-out: % of inhibition of the kinase compared to the control
T8 construct: purchased Invitrogen
Procedure: as §1, §2, §3

EGFR (ErbB1) T790M L858R = target: T9, EGFR (ErbB1) T790M L858R (Homo sapiens, UniProt P00533, L858R/T790M); test: In vitro kinase assay (Z′-LYTE); format: biochemical; details: read-out: % of inhibition of the kinase compared to the control
T9 construct: purchased Invitrogen
Procedure: as §1, §2, §3

FGFR1 = target: T10, FGFR1 (Homo sapiens, UniProt P11362); test: In vitro kinase assay (Z′-LYTE); format: biochemical; details: read-out: % of inhibition of the kinase compared to the control
T10 construct: purchased Invitrogen
Procedure: as §1, §2, §3

PDGFRB = target: T11, PDGFRB (Homo sapiens, UniProt P09619); test: In vitro kinase assay (Z′-LYTE); format: biochemical; details: read-out: % of inhibition of the kinase compared to the control
T11 construct: purchased Invitrogen
Procedure: as §1, §2, §3

VEGFR1 = target: T12, VEGFR1 (Homo sapiens, UniProt P17948); test: In vitro kinase assay (Z′-LYTE); format: biochemical; details: read-out: % of inhibition of the kinase compared to the control
T12 construct: purchased Invitrogen
Procedure: as §1, §2, §3

BxPC-3 = test: In vitro cell proliferation assay (MTT); format: cell-based; details: Homo sapiens, BXPC-3, 72 h
Procedure: as §4

H1975 = test: In vitro cell proliferation assay (MTT); format: cell-based; details: Homo sapiens, NCI-H1975, 72 h
Procedure: as §4

HT29 = test: In vitro cell proliferation assay (MTT); format: cell-based; details: Homo sapiens, HT-29, 72 h
Procedure: as §4

HuCCT1 = test: In vitro cell proliferation assay (MTT); format: cell-based; details: Homo sapiens, HuCCT-1, 72 h
Procedure: as §4

T2 sequence (P00533 25-1210): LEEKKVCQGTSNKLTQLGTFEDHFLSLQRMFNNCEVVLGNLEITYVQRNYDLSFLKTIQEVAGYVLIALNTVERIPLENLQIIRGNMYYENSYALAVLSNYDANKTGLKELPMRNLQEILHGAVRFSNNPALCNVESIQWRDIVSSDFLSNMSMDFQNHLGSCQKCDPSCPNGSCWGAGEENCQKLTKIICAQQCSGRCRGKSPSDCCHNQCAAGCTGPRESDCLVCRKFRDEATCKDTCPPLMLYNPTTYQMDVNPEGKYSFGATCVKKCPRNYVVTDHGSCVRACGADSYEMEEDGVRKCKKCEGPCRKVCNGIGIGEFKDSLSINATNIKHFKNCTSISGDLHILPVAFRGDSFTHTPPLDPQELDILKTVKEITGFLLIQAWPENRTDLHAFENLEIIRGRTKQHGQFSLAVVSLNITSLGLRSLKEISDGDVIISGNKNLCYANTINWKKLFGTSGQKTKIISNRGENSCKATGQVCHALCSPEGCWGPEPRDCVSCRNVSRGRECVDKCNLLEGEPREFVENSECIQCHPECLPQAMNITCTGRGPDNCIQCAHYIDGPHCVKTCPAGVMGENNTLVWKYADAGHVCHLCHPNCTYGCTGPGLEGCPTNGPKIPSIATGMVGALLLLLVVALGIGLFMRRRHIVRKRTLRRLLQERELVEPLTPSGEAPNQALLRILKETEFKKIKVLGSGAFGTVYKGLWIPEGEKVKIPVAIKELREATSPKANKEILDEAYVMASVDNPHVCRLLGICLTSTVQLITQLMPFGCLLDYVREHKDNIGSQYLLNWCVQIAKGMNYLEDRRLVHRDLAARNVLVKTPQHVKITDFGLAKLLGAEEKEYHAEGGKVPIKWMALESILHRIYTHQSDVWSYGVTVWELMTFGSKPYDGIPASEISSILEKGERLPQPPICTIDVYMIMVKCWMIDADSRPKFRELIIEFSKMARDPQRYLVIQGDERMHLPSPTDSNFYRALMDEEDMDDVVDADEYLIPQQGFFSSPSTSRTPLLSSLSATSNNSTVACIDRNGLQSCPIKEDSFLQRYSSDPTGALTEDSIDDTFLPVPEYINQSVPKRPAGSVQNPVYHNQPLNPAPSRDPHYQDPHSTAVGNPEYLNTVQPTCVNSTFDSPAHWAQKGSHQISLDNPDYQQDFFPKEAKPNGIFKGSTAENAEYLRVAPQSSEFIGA
T3 sequence (P21802 22-821): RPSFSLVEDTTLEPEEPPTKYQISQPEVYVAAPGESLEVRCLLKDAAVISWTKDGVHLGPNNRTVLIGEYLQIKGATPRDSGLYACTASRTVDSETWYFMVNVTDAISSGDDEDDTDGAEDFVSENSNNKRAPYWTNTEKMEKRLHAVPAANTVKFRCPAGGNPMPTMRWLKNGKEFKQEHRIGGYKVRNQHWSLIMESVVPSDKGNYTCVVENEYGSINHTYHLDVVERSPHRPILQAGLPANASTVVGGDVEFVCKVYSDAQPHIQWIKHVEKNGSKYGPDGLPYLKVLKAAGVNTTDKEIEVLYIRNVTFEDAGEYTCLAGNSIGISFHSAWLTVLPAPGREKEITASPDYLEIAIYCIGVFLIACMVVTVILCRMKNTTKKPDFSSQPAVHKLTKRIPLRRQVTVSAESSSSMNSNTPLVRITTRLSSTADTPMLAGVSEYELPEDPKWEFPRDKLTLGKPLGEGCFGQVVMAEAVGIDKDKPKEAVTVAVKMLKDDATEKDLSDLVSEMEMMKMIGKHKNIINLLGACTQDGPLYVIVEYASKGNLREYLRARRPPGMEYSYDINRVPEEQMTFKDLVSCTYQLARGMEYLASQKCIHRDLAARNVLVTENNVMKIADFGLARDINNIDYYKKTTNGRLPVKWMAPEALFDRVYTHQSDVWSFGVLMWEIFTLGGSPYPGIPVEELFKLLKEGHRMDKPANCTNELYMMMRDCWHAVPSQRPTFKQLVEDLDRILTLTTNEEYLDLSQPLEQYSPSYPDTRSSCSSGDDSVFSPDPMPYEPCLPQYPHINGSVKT
T5 sequence (P16234 24-1089): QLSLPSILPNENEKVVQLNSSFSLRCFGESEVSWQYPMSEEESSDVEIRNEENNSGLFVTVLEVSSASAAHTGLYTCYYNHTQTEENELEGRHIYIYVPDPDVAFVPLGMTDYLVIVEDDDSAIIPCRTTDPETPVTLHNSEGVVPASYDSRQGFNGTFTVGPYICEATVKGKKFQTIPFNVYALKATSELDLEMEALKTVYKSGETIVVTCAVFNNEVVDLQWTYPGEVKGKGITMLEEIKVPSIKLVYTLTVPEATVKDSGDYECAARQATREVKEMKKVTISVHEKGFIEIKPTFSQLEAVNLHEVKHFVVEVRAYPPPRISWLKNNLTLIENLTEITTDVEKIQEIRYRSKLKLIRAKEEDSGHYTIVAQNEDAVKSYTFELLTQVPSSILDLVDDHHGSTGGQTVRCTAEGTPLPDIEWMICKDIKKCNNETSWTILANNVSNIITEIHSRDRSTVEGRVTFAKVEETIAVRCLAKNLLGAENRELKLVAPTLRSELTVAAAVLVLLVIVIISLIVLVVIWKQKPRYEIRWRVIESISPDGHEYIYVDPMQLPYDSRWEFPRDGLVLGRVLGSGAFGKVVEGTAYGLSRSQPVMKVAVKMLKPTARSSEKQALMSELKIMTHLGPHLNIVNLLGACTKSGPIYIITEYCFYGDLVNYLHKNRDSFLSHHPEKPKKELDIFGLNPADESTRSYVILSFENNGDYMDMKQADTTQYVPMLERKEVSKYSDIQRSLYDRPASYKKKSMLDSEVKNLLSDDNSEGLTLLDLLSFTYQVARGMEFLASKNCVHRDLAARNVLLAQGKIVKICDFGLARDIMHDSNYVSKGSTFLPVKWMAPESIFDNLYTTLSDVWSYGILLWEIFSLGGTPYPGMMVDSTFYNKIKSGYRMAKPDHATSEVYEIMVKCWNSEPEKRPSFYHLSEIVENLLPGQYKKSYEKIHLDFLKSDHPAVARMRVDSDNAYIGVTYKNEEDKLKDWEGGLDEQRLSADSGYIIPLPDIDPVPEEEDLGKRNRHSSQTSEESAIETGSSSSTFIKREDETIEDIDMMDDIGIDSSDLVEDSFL
T4 sequence (P35968 20-1356): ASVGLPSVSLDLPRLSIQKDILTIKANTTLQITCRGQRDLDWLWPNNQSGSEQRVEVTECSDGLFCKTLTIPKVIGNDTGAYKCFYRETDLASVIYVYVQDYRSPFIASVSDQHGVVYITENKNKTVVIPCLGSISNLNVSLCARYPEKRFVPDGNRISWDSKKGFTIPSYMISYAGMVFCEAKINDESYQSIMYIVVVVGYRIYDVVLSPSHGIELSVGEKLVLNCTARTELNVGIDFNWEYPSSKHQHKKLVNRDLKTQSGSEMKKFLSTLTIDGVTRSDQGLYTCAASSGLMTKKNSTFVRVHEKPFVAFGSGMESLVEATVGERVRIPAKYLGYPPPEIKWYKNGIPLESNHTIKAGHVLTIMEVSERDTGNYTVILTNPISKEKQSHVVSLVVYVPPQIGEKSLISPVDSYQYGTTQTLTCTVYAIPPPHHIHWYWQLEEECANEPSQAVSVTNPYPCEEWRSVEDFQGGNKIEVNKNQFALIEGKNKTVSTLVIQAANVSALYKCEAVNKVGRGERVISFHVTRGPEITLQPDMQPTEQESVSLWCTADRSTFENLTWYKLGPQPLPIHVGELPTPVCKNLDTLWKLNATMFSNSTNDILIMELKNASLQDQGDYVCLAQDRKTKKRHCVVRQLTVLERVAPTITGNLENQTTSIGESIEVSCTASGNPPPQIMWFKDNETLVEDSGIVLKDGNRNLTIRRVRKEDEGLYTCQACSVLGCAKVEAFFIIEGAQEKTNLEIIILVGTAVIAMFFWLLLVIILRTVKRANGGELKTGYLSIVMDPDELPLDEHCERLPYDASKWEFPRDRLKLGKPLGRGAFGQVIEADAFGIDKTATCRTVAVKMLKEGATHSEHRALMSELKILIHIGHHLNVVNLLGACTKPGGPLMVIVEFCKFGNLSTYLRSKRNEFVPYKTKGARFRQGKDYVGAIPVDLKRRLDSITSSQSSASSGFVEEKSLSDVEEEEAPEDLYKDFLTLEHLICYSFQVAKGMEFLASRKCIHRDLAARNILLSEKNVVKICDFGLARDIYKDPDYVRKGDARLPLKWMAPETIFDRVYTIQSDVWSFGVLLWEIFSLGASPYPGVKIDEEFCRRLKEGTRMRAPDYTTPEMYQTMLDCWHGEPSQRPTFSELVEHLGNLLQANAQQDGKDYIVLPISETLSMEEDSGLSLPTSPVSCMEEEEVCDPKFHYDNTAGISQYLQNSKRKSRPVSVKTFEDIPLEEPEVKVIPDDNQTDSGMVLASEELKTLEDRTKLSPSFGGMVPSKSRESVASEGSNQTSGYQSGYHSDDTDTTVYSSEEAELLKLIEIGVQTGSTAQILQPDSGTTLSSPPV
T6 sequence (P12931 whole entry): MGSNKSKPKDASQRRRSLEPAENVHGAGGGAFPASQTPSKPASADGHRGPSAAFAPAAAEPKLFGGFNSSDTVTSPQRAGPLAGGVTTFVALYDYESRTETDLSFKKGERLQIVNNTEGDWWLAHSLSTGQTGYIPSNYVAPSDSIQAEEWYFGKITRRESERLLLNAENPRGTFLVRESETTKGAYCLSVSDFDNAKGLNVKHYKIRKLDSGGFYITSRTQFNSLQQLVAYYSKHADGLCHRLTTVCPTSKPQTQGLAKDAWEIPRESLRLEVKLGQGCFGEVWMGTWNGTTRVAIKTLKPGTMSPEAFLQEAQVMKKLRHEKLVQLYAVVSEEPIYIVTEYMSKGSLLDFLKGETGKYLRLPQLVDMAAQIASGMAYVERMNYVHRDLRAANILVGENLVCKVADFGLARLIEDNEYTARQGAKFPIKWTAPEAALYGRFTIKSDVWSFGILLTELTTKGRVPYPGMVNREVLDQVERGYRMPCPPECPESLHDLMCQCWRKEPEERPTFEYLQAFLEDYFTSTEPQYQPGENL

| SMILES | inhibition at 0.1 µM (BRAF) [%] | inhibition at 0.1 µM (EGFR (ErbB1)) [%] | inhibition at 0.1 µM (FGFR2) [%] | inhibition at 0.1 µM (KDR (VEGFR2)) [%] | inhibition at 0.1 µM (PDGFRA (PDGFR alpha)) [%] | EC50 (HepG2) [µM] | EC50 (HuH7) [µM] | inhibition at 0.1 µM (SRC) [%] | EC50 (A549) [µM] | EC50 (HUVEC) [µM] | other results |
| --- | --- | --- | --- | --- | --- | --- | --- | --- | --- | --- | --- |
| COC(=O)c1cc2cc(NCc3cc(NS(=O)(=O)c4cccc(C(F)(F)F)c4)ccc3C)cnc2[nH]1 [OR0882] | < 50 | < 50 | < 50 | < 50 | < 50 | ≥ 1 | ≥ 1 | – | – | ≥ 1 | – |
| COC(=O)c1cc2cc(NCc3cc(NC(=O)c4cncc(C)c4)ccc3C)cnc2[nH]1 [OR0867] | ≥ 50 | ≥ 50 | < 50 | ≥ 50 | – | 0.1 to 1 | ≥ 1 | – | – | ≥ 1 | – |
| COC(=O)c1cc2cc(NC(=O)c3cccc(CNC(=S)c4cccc(C(F)(F)F)c4)c3)cnc2[nH]1 [OR1011] | < 50 | < 50 | < 50 | < 50 | < 50 | ≥ 1 | – | – | ≥ 1 | ≥ 1 | EC50 (HeLa): ≥ 1 µM; EC50 (MDA-MB-231): ≥ 1 µM |
| COC(=O)c1cc2cc(NCc3cc(NC(=S)Nc4cccc(C(F)(F)F)c4)ccc3C)cnc2[nH]1 [OR1016] | < 50 | < 50 | – | < 50 | – | 0.1 to 1 | – | – | ≥ 1 | ≥ 1 | EC50 (HeLa): ≥ 1 µM; EC50 (MDA-MB-231): 0.1 to 1 µM |

Continued, in another order:

| inhibition at 0.1 µM (BRAF) [%] | inhibition at 0.1 µM (EGFR (ErbB1)) [%] | inhibition at 0.1 µM (FGFR2) [%] | inhibition at 0.1 µM (KDR (VEGFR2)) [%] | inhibition at 0.1 µM (PDGFRA (PDGFR alpha)) [%] | EC50 (HepG2) [µM] | EC50 (HuH7) [µM] | inhibition at 0.1 µM (SRC) [%] | EC50 (A549) [µM] | SMILES | EC50 (HUVEC) [µM] | other results |
| --- | --- | --- | --- | --- | --- | --- | --- | --- | --- | --- | --- |
| < 50 | ≥ 50 | ≥ 50 | ≥ 50 | ≥ 50 | 0.1 to 1 | 0.1 to 1 | ≥ 50 | – | COC(=O)c1cc2cc(NCc3cc(NC(=O)c4ccc(CN5CCN(C)CC5)c(C(F)(F)F)c4)ccc3F)cnc2[nH]1 [OR0816] | ≤ 0.1 | – |
| ≥ 50 | ≥ 50 | < 50 | < 50 | – | 0.1 to 1 | ≥ 1 | – | – | COC(=O)c1cc2cc(NCc3cc(NC(=O)c4ccc(C(F)(F)F)nc4)ccc3C)cnc2[nH]1 [OR0865] | 0.1 to 1 | – |
| < 50 | ≥ 50 | < 50 | < 50 | ≥ 50 | 0.1 to 1 | 0.1 to 1 | ≥ 50 | – | COC(=O)c1cc2cc(NCc3cc(NC(=O)c4ccc(Cl)c(C(F)(F)F)c4)ccc3C)cnc2[nH]1 [OR0871] | 0.1 to 1 | – |
| ≥ 50 | < 50 | < 50 | ≥ 50 | ≥ 50 | ≥ 1 | – | ≥ 50 | ≥ 1 | COC(=O)c1cc2cc(NCc3cc(NC(=O)c4ccc5c(c4)OCO5)ccc3C)cnc2[nH]1 [OR0615] | 0.1 to 1 | inhibition at 10 µM (ABL): ≥ 50%; inhibition at 10 µM (ABL T315I): < 50%; inhibition at 0.1 µM (EGFR (ErbB1) T790M L858R): < 50%; inhibition at 0.1 µM (FGFR1): < 50%; inhibition at 0.1 µM (PDGFRB): ≥ 50%; inhibition at 0.1 µM (VEGFR1): < 50%; EC50 (BxPC-3): ≥ 1 µM; EC50 (H1975): ≥ 1 µM; EC50 (HT29): ≥ 1 µM; EC50 (HuCCT1): ≥ 1 µM |

From patent publication US9493455B2, “Azaindole derivatives as inhibitors of protein kinases” (ORIBASE PHARMA, priority 2012, dated 2016)
